In US20220226298A1, “GPR40 AGONISTS” (Kallyope, Inc., priority 2019, published 2022) one finds EC50 data, which are given here for 20 molecules.

pEC50: −log10 of the molar value.

T1 sequence (O14842 whole entry): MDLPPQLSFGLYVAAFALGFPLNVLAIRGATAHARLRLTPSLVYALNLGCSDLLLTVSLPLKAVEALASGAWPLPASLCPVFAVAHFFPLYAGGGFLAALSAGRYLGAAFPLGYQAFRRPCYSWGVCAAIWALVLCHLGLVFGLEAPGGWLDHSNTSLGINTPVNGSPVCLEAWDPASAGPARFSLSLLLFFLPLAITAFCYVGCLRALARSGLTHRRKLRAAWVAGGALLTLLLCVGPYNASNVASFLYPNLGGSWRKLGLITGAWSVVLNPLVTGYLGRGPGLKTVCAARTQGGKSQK

This test addresses T1, human GPR40 (Homo sapiens, UniProt O14842).
T1 construct: host or cells: CHO-K1
In words: Inositol phosphate accumulation assay (IP1 HTRF) in CHO-K1 cells expressing human GPR40. To be noted: 90 min stimulation. In kind it is cell-based. The protocol:
CHO-KI cells expressing human GPR40 were purchased from DiscoverX (95-1005C2). HEK293 cells expressing mouse FFAR1 were prepared using a mouse FFAR1 carrying plasmid purchased from OriGene Technologies (MR222997). The cells were transfected using Lipofectamine 2000 using manufacturer instructions and stable cell line was established from a single cell using geneticine selection. Assay ready frozen (ARF) cells were prepared and used throughout the study.
The assay was performed in a 384-well plate format using IP1 assay kit from Cis-Bio. ARF cells expressing FFAR1 (mouse and human) were thawed, washed and then plated in the appropriate medium (F12 based medium for CHO hFFAR1 and DMEM based medium for HEK293 mFFAR1—both were supplemented with 10% FBS and penicillin/streptomycin). 20 μL of 3.5×10^5 cells/mL were plated on a Poly D-Lysine coated 384-well white plate. The cells were then incubated for 16 hr at 37° C./5% CO2. After 16 hr the medium was removed and 15 μL of stimulation buffer containing the test compounds was added to the cells. The plates were then incubated for 90 min at 37° C./5% CO2. 5 μL of detection buffer (prepared as described in the IP-one kit) was added to each well and the plates were incubated at RT for 1 hr.
[…] was measured using ClarioSTAR plate reader, calculating the ratio between emissions at 665 nm and 620 nm (HTRF ratio). HTRF ratio for positive (Max) and negative (Min) controls were used to normalize HTRF data and generate values for % activity. EC50 and Max activity values were determined using a standard 4-parameter fit.
`COc1cc(-c2cc(F)c(C(=O)Oc3cccc([C@H](C4CC4)[C@@](C)(F)C(=O)O)c3)cc2CN(C(C)C)C(C)C)ccn1` [Compound 39] had a pEC50 of at least 8.00.
The result for `COc1ccc(F)c([C@H]2CC[C@H](C(=O)Oc3cccc([C@H](C4CC4)[C@H](C)C(=O)O)c3)CC2)c1` [Compound 40, (2S,3R)-3-cyclopropyl-3-(3-(((1r,4R)-4-(2-fluoro-5-methoxyphenyl)cyclohexanecarbonyl)oxy)phenyl)-2-methylpropanoic acid] reads at least 8.00.
The result for `COc1ccc(F)c(-c2ccc(OC(=O)c3cccc([C@@H](CC(=O)O)C4CC4)c3)cc2)c1` [Compound 41] reads 6.30 to 7.00; that for `O=C(O)C[C@H](c1cccc(C(=O)O)c1)C1CC1` [Compound 42], below 6.30.
Under `O=C(O)C[C@H](c1cccc(C(=O)Oc2ccc(-c3cc(O)ccc3F)cc2)c1)C1CC1` [Compound 43] stands 6.30 to 7.00; under `COc1cc(-c2ccc(OC(=O)c3cccc([C@@H](CC(=O)O)C4CC4)c3)cc2)c(F)cn1` [Compound 44], 6.30 to 7.00; under `COc1ccc(F)c(-c2ccc(OC(=O)c3cccc([C@@H](CC(=O)O)C4CC4)c3)c(C)c2)c1` [Compound 45, (S)-3-cyclopropyl-3-(3-(((2′-fluoro-5′-methoxy-3-methyl-[1,1′-biphenyl]-4-yl)oxy)carbonyl)phenyl)propanoic acid], 6.30 to 7.00.
With `CC(c1cc(C(F)(F)F)ccc1C(F)(F)F)N1CCC(OC(=O)c2cccc([C@@H](CC(=O)O)C3CC3)c2)CC1` (stereo partly drawn) [Compound 46, (3S)-3-(3-(((1-(1-(2,5-bis(trifluoromethyl)phenyl)ethyl)piperidin-4-yl)oxy)carbonyl)phenyl)-3-cyclopropylpropanoic acid], the pEC50 was below 6.30.
Under `CC(c1cc(C(F)(F)F)ccc1C(F)(F)F)N1CC(OC(=O)c2cccc([C@@H](CC(=O)O)C3CC3)c2)C1` (some centres unmarked) [Compound 47] stands below 6.30.
The result for `CC(c1cc(C(F)(F)F)ccc1C(F)(F)F)N1CC[C@@H](OC(=O)c2cccc([C@@H](CC(=O)O)C3CC3)c2)C1` (some centres unmarked) [Compound 48] reads below 6.30; that for `CC(c1cc(C(F)(F)F)ccc1C(F)(F)F)N1CC[C@H](OC(=O)c2cccc([C@@H](CC(=O)O)C3CC3)c2)C1` (some centres unmarked) [Compound 49], below 6.30; that for `COc1cc(-c2ccc(C(=O)Oc3cccc([C@H](C4CC4)[C@H](C)C(=O)O)c3)c(C)c2)c(C(=O)NCCO)cn1` [Compound 51], below 6.30.
Under `COc1cc(-c2ccc(C(=O)Oc3cccc([C@H](C4CC4)[C@H](C)C(=O)O)c3)c(C)c2)c(C(=O)N(CCO)CCO)cn1` [Compound 52] stands below 6.30.
Take `COC(=O)c1cnc(OC)cc1-c1ccc(C(=O)Oc2cccc([C@H](C3CC3)[C@H](C)C(=O)O)c2)cc1CN(C(C)C)C(C)C` [Compound 53]: the pEC50 was at least 8.00.
The result for `COc1cc(-c2ccc(OC(=O)c3cccc([C@H](C4CC4)[C@H](C)C(=O)O)c3)cc2)c(F)cn1` [Compound 54] reads at least 8.00.
The result for `COc1cc(-c2ccc(OC(=O)c3cccc([C@H](C4CC4)[C@H](C)C(=O)O)c3)c(CN(C(C)C)C(C)C)c2)c(F)cn1` [Compound 55] reads at least 8.00; that for `COc1cc(-c2ccc(OC(=O)c3cccc([C@H](C4CC4)[C@H](C)C(=O)O)c3)c(C)c2)c(F)cn1` [Compound 56], at least 8.00.
The result for `CCN(Cc1cc(OC(=O)c2cccc([C@H](C3CC3)[C@H](C)C(=O)O)c2)ccc1-c1cc(OC)ncc1F)C(C)C` [Compound 57] reads at least 8.00; that for `COc1cc(-c2ccc(OC(=O)c3cccc([C@H](C4CC4)[C@H](C)C(=O)O)c3)cc2CN(C(C)C)C(C)C)c(F)cn1` [Compound 58], at least 8.00.
`COc1cc(-c2cc(F)c(OC(=O)c3cccc([C@H](C4CC4)[C@H](C)C(=O)O)c3)cc2CN(C(C)C)C(C)C)ccn1` [Compound 59, (2S,3R)-3-cyclopropyl-3-(3-((5-((diisopropylamino)methyl)-2-fluoro-4-(2-methoxypyridin-4-yl)phenoxy)carbonyl)phenyl)-2-methylpropanoic acid] had a pEC50 of at least 8.00.
